This note sets out measurements from paper PMC11459172 (Proceedings of the National Academy of Sciences of the …, 2024).

In one test the test system is PARP1/2. The test is classed as cell-based, human. The following applies: TruHD fibroblasts, HD vs control; as Fig 3B; SI Fig S6C.
In the next test the target is PARG (Homo sapiens, UniProt Q86W56). It is filed as cell-based. The following applies: TruHD fibroblasts, HD vs control.
The next test concerns the target PARP1 (Homo sapiens, UniProt P09874). The experiment in a line: In vitro PARP1 autoPARylation reaction with recombinant HTT-HAP40, western blot. To be noted: 10 fmol recombinant PARP1, 2 h at 30 °C, increasing amounts of HTT-HAP40. The test is classed as biochemical. A general note: In western blotting, separated proteins are transferred to a membrane and probed.
Test [1] in a line: Fluorescence polarization with FAM-labeled 11-mer or 26-mer PAR. It is filed as binding. To be noted: 25 nM FAM-labeled PAR, up to 10 μM protein. A general note: Polarisation of emitted light reports the rotation of a fluorescent probe.

PARP1, sequence (P09874 whole entry): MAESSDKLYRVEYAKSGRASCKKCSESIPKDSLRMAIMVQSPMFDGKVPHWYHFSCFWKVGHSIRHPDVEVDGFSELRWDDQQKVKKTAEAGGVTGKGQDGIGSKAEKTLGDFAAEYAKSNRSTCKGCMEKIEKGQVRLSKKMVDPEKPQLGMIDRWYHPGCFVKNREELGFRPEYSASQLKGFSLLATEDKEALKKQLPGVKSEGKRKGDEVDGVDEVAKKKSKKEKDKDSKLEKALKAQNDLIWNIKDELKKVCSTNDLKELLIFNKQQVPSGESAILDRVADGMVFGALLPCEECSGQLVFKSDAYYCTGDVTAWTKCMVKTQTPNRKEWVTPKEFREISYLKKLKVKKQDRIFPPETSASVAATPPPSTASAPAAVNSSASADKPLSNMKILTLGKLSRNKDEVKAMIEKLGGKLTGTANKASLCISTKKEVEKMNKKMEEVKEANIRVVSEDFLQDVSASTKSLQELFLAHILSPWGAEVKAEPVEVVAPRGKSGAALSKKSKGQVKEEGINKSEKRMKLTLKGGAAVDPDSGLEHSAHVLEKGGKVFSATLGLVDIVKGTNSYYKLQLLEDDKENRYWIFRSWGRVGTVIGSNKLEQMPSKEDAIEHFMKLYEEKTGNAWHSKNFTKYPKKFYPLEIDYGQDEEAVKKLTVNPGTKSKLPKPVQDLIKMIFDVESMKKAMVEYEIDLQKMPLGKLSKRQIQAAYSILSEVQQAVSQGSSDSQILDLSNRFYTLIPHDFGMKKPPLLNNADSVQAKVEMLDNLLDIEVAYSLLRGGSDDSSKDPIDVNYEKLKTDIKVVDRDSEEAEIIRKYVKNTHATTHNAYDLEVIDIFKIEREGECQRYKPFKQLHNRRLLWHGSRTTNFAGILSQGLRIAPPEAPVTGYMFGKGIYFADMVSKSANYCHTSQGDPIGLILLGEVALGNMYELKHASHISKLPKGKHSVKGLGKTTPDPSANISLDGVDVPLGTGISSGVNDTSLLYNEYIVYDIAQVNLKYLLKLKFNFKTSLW
PARG, sequence (Q86W56 whole entry): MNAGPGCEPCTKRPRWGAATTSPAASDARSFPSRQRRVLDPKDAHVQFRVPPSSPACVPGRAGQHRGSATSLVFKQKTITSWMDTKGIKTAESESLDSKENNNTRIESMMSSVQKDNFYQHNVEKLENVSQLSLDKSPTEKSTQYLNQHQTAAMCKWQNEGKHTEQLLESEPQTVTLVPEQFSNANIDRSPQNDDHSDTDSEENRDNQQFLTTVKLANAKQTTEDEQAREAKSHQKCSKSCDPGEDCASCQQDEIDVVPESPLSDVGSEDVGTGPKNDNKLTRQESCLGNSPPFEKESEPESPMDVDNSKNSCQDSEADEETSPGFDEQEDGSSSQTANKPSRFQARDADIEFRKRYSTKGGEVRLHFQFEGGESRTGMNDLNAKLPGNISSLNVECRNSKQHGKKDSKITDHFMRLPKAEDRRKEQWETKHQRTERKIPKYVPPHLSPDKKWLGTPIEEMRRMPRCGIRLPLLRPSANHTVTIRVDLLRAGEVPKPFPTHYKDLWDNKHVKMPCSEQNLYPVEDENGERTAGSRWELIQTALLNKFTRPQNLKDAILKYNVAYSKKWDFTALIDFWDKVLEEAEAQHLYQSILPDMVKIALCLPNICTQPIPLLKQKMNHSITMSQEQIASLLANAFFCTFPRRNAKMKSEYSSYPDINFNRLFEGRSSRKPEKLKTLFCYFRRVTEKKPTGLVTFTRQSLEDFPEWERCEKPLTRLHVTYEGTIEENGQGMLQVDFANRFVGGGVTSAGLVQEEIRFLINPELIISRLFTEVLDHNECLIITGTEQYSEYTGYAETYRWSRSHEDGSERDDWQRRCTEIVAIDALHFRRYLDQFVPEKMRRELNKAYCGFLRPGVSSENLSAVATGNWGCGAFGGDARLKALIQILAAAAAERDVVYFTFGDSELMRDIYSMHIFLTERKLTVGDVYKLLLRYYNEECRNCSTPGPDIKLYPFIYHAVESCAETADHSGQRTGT

Turning to `Cn1ncnc1[C@H]1c2n[nH]c(=O)c3cc(F)cc(c23)N[C@@H]1c1ccc(F)cc1` [talazoparib], in the test on PARP1/2, the “PARP inhibitor IC50, HD cells compared to controls” value is given as “reduced IC50 in HD cells”.

As to PDD00017273, the “PARG inhibitor IC50, HD compared to control cells” value at PARG is “no difference between HD and control cells”.

Regarding “wild-type HTT: purified recombinant wild-type huntingtin in complex with HAP40, Q23”, the “Effect on PARP1 autoPARylation activity” value with PARP1 is “stimulated PARP1 activity in a dose-dependent manner”. For the same compound, the “PAR binding by fluorescence polarization” value in test [1] (listed as HTT) is given as “binds long (26-mer) PAR chains, in preference to shorter (11-mer) substrates”; in test [1] (listed as HTT-HAP40 Q23), “lower binding than the positive control PAR-binding protein HUWE1, but higher binding than the negative control non-PAR-binding protein USP5”.
